From patent US20150018305A1, “SIRTUIN INDUCER, TISSUE REPAIRING AGENT, HEPATOCYTE GROWTH FACTOR INDUCER, TISSUE HOMEOSTASIS MAINTENANCE AGENT, AND TLR4 AGONIST, HAVING HYALURONIC ACID FRAGMENT AS ACTIVE INGREDIENT” (HYALURONAN RESEARCH INSTITUTE, INC., priority 2012, published 2015)

Key:
[1] = test system: activated (phosphorylated) NF-kappaB; test: NF-kappaB expression in TNF-α treated human large intestine epithelial cells, fluorescent staining (Test Example 9); assay type: cell-based; conditions: TNF-α treatment, 10 ng/ml test substance, 24 hours
Protocol: It was investigated whether the expression of NF-kappaB in human large intestine epithelial cells (HT29 cells) when subjected to TNF-α treatment is affected by treatment with the hyaluronic acid fragment. NF-kappaB is a transcription factor involved in inflammation, tissue destruction, and the like.
DMEM culture medium (made by Wako Pure Chemical Industries, Ltd.) to which TNF-α and the hyaluronic acid fragment were added, and DMEM culture medium from which these were omitted, were prepared, and human large intestine epithelial cells were treated for 24 hours in these culture media. Thereafter, the cells were stained with an antibody that recognizes activated (phosphorylated) NF-kappaB.
The vertical axis of the graph indicates fluorescent intensity. It may be appreciated that, in cells to which four- to eight-unit hyaluronic acid fragments were added, the expression level of NF-kappaB is reduced in statistically significant fashion.

[2] = test system: human sirtuin proteins (SIRT1); test: Sirtuin induction in human epidermal keratinocytes, anti human SIRT1 antibody staining (Test Example 1); assay type: cell-based; conditions: 24 hours
Protocol: Human epidermal keratinocytes (normal human keratinocytes from a person) were cultured and prepared. Following culture of the human keratinocytes in a prolonged culture growth medium (EpiLife-KG2) at 37° C. under 5% CO2, the cells were recovered by trypsin treatment. The cells were then inoculated into a 96-well plate (100 μL per well) and cultured overnight. Following completion of culture, the culture broth from each well was transferred to a culture medium (keratinocyte SFM made by Gibco) to which no hyaluronic acid fragments were added, or to the same culture medium to which a hyaluronic acid fragment (4mer) was added to a final concentration of 0.01 ng/ml, 0.1 ng/ml, 1.0 ng/ml, or 10 ng/ml, and cultured for 24 hours.
After 24 hours had passed, the cells in each well were stained with the anti human SIRT1 antibody. The anti human SIRT1 antibody is an antibody that recognizes and stains human sirtuin proteins. The stained cells were observed under a microscope (made by Nikon), taking photographs of cell morphology and stained images of cells.

[3] = test system: human epidermal keratinocytes; test: Change in size of human epidermal keratinocytes, image analysis (Test Example 3); assay type: cell-based; conditions: surface area on the image of a single cell; 0.01 ng/ml, 24 hours
Protocol: A test of sirtuin induction in human epidermal keratinocytes was conducted in the same manner as in Test Example 1.
The change in cell size was analyzed using image analysis software (“Image J”). The 5 results in Table 2 are graphed in FIG. 5. The pixel count in the results indicates surface area on the image of a single cell, with higher values considered to indicate larger cells.

[4] = test system: rat bone marrow mesenchymal stem cells; test: Hydrogen peroxide induced aging of rat bone marrow mesenchymal stem cells, PI dead cell count (Test Example 21); assay type: cell-based; conditions: 2 hours
Protocol: It was investigated whether the process, in which rat bone marrow mesenchymal stem cells experienced cellular aging (increased cell death) when treated with hydrogen peroxide, is affected by treatment with the hyaluronic acid fragment. Specifically, the following test was performed.
Using a DMEM culture medium (made by Wako Pure Chemical Industries, Ltd.), rat bone marrow mesenchymal stem cells were cultured by usual methods at 37° C. under 5% CO2. Hydrogen peroxide was added to the culture medium to a final concentration of 1 μM to bring about stimulation for a 15-minute period, and the culture broth was then transferred to DMEM culture medium containing no added hyaluronic acid fragments; to DMEM culture medium containing hyaluronic acid fragment (L3mer) added to a final concentration of 100 ng/ml; or to DMEM culture medium containing the hyaluronic acid fragment (L3mer) plus TLR4/MD2 added to a final concentration of 10 μg/ml, and cultured for 2 hours.
After 2 hours had passed, PI ([…]), which emits red fluorescence upon uptake into dead cells, was added to the culture medium to a final concentration of 5 μg/ml, and after incubation for 15 minutes, the condition of appearance of dead cells was examined with a fluorescence microscope.

[5] = test system: human neural stem cells (neurospheres); test: Hydrogen peroxide induced aging of human neural stem cells, microscopy (Test Example 20); assay type: cell-based; conditions: 24 hours
Protocol: It was investigated whether the process, in which human neural stem cells (neurospheres) experienced cellular aging (vacuolar degeneration and hypertrophy) when treated with hydrogen peroxide, is affected by treatment with the hyaluronic acid fragment. Specifically, the following test was performed.
Human neural stem cells (neurospheres) (trade name Gibco Human Neural Stem Cells (H9-Derived) made by Gibco) were cultured in Neurobasal Media (trade name, made by Gibco) culture medium at 37° C. under 5% CO2. Hydrogen peroxide was added to the culture medium to a final concentration of 10 μM to bring about stimulation for a 15-minute period, and the culture broth was then transferred to Neurobasal Media culture medium (made by Gibco) containing no hyaluronic acid fragments; to the same culture medium containing hyaluronic acid fragment (L3mer) in a final concentration of 100 ng/ml; or to the same culture medium containing hyaluronic acid fragment (L3mer) plus TLR4/MD2 added to a final concentration of 10 μg/ml, and cultured for 24 hours.
After 24 hours, the cells were examined with an inverted microscope.

[6] = test system: human neural stem cells (neurospheres); test: Action on human neural stem cells, Nestin/Tubulin double staining (Test Example 7); assay type: cell-based; conditions: 10 ng/ml, 12 days
Protocol: Human neural stem cells (neurospheres) (trade name Gibco Human Neural Stem Cells (H9-Derived) made by Gibco) were cultured in Neurobasal Media (trade name, made by Gibco) culture medium at 37° C. under 5% CO2, and the cells were recovered by trypsin treatment. The cells were then inoculated into a 96-well plate (100 μL per well) and cultured overnight. Following completion of culture, the culture broth from each well was transferred to Neurobasal Media (trade name, made by Gibco) culture medium to which no hyaluronic acid fragments were added, or to the same medium to which hyaluronic acid fragment (L3mer) had been added to a final concentration of 10 ng/ml, and cultured for 12 days
After 12 days had passed, the cells in each well were double-stained with anti human Nestin antibody and anti human Tubulin antibody. Nestin is a protein that is specifically expressed in neural stem cells, and is a neural stem cell marker. The stained cells were observed under a microscope (made by Nikon), taking photographs of cell morphology and stained images of cells.

liver function = test: Concanavalin A liver damage model, blood GOT and GPT (Test Example 15); assay type: in vivo; conditions: concanavalin A 20 mg/kg caudal vein, fragment oral, after 24 hours, 20-month old female Balb/c mice
Protocol: The effect of action of the hyaluronic acid fragment on the liver of aged […] was investigated. Specifically, 20-month old (aged) female Balb/c mice were administered through the caudal vein with concanavalin A (20 mg/kg of body weight) one time, as a liver damage model. Subsequent to administration of concanavalin A, hyaluronic acid fragment (4mer or L3mer) were administered orally, and the effect thereof was investigated. Impairment of liver function was evaluated after 24 hours, by drawing blood and measuring the GOT and GPT values in the blood.

[7] = 100 ng/ml plus TLR4/MD2 10 μg/ml

Compound | expression level of NF-kappaB (fluorescent intensity) [1] | Average staining intensity ([2]; 0.01 ng/ml) | Average staining intensity ([2]; 0.1 ng/ml) | Average staining intensity ([2]; 1.0 ng/ml) | Average staining intensity ([2]; 10 ng/ml) | Average pixel count [3] | suppression of cell death with TLR4/MD2 added [4, 7] | hydrogen peroxide-induced cellular aging (increased cell death, dead cells per unit visual field) ([4]; hydrogen peroxide 1 μM, 100 ng/ml, PI staining) | suppression of cellular aging with TLR4/MD2 added [5, 7] | hydrogen peroxide-induced cellular aging (vacuolar degeneration and hypertrophy) ([5]; hydrogen peroxide 10 μM, 100 ng/ml) | expression of Nestin and Tubulin [6] | process formation (morphology) [6] | impairment of liver function (GOT values in the blood) (liver function)
CC(=O)N[C@H]1[C@H](O[C@H]2[C@H](O)[C@@H](O)[C@H](O[C@H]3[C@H](O)[C@@H](CO)OC(O)[C@@H]3NC(C)=O)O[C@@H]2C(=O)O)O[C@H](CO)[C@@H](O)[C@@H]1O[C@@H]1O[C@H](C(=O)O)[C@@H](O)[C@H](O)[C@H]1O (stereo partly shown) [4mer, GlcA(-GlcNAc-GlcA)1-GlcNAc] | inhibited to the greatest extent | 6.33 | 6.35 | 6.52 | 6.54 | 124515.9333 | – | – | – | – | – | – | –
CC(=O)NC1C(O[C@@H]2OC(C(=O)O)[C@@H](O)C(O)C2O)[C@H](O)C(CO)O[C@H]1O[C@@H]1C(C(=O)O)O[C@@H](OCCCN=[N+]=[N-])C(O)C1O (stereo partly shown) [L3mer] | – | – | – | – | – | – | inhibited by addition of TLR4/MD2 | suppressed | inhibited by addition of TLR4/MD2 | suppressed | expression of both Nestin and Tubulin was confirmed | process formation was confirmed | markedly better with the L3mer than with the 4mer
